ChEMBL document CHEMBL4330112, “Monodisperse oligoethylene glycols modified Camptothecin, 10-Hydroxycamptothecin and SN38 prodrugs” (Bioorg Med Chem Lett, 2019)
Values after ≈ are worked out from the molar mass of the structure shown. Blank lines part the entries; values can stand above or below the compound they belong to.

Assays:
[1] = Solubility of the compound in phosphate buffered saline by UV-spectroscopic analysis; assay type: physicochemical
HepG2 = assay: Cytotoxicity against human HepG2 cells after 72 hrs by MTT assay; assay type: functional, cell-based; conditions: HepG2, 72 h
MCF7 = assay: Cytotoxicity against human MCF7 cells after 72 hrs by MTT assay; assay type: functional, cell-based; conditions: MCF7, 72 h
[2] = Prodrug conversion in Sprague-Dawley rat plasma assessed as 10-hydroxycamptothecin formation at 4 mg measured within 2 hrs by UV-based RP-HPLC analysis; assay type: ADME, cell-free
[3] = Prodrug conversion in Sprague-Dawley rat plasma assessed as SN38 formation at 4 mg measured within 2 hrs by UV-based RP-HPLC analysis; assay type: ADME, cell-free
[4] = phosphate buffered saline, read-out: solubility

solubility [1, 4]: 272 mg/mL (≈ 186 mM)
SMILES: CC[C@@]1(OC(=O)OCCOCCOCCOCCOCCOCCOCCOCCOCCOCCOCCOCCOCCOCCOCCOCCOCCOCCOCCOCCOCCOCCOCCOCCOC)C(=O)OCc2c1cc1n(c2=O)Cc2cc3ccccc3nc2-1
IC50 (HepG2): 6.17 µM | IC50 (MCF7): 8.62 µM

SMILES: CCc1c2c(nc3ccc(OC(=O)OCCOCCOCCOCCOCCOCCOCCOCCOCCOCCOCCOCCOCCOCCOCCOCCOCCOCCOCCOCCOC)cc13)-c1cc3c(c(=O)n1C2)COC(=O)[C@]3(O)CC
IC50 (HepG2): 1.98 µM | IC50 (MCF7): 3.08 µM

SMILES: CC[C@@]1(O)C(=O)OCc2c1cc1n(c2=O)Cc2cc3ccccc3nc2-1 [CAMPTOTHECIN]
solubility [1, 4]: 0.00069 mg/mL (≈ 0.00198 mM) | IC50 (HepG2): 0.66 µM | IC50 (MCF7): 0.68 µM

SMILES: CC[C@@]1(O)C(=O)OCc2c1cc1n(c2=O)Cc2cc3cc(OCCOCCOCCOCCO)ccc3nc2-1
solubility [1, 4]: 0.95 mg/mL (≈ 1.76 mM) | IC50 (HepG2): 41.8 µM | IC50 (MCF7): 74.6 µM

SMILES: CC[C@@]1(O)C(=O)OCc2c1cc1n(c2=O)Cc2cc3cc(OC(=O)OCCOCCOCCOCCOCCOCCOCCOCCOCCOCCOCCOCCOCCOCCOCCOCCOC)ccc3nc2-1
IC50 (HepG2): 2.75 µM | IC50 (MCF7): 6.16 µM

solubility [1, 4]: 143 mg/mL (≈ 115 mM)
SMILES: CC[C@@]1(OC(=O)OCCOCCOCCOCCOCCOCCOCCOCCOCCOCCOCCOCCOCCOCCOCCOCCOCCOCCOCCOC)C(=O)OCc2c1cc1n(c2=O)Cc2cc3ccccc3nc2-1
IC50 (HepG2): 3.61 µM | IC50 (MCF7): 7.43 µM

SMILES: CC[C@@]1(O)C(=O)OCc2c1cc1n(c2=O)Cc2cc3cc(OC(=O)OCCOCCOCCOCCOCCOCCOCCOCCOCCOCCOC)ccc3nc2-1
solubility [1, 4]: 142 mg/mL (≈ 165 mM) | IC50 (HepG2): 2.08 µM | IC50 (MCF7): 5.44 µM

solubility [1, 4]: 136 mg/mL (≈ 122 mM)
SMILES: CC[C@@]1(OC(=O)OCCOCCOCCOCCOCCOCCOCCOCCOCCOCCOCCOCCOCCOCCOCCOCCOC)C(=O)OCc2c1cc1n(c2=O)Cc2cc3ccccc3nc2-1
IC50 (HepG2): 4.72 µM | IC50 (MCF7): 6.17 µM

SMILES: CC[C@@]1(O)C(=O)OCc2c1cc1n(c2=O)Cc2cc3cc(OCCOCCOCCOCCOCCOCCOCCO)ccc3nc2-1
solubility [1, 4]: 73.3 mg/mL (≈ 109 mM) | IC50 (HepG2): 62.4 µM | IC50 (MCF7): > 100 µM

solubility [1, 4]: 0.00087 mg/mL (≈ 0.00222 mM)
SMILES: CCc1c2c(nc3ccc(O)cc13)-c1cc3c(c(=O)n1C2)COC(=O)[C@]3(O)CC [7-ETHYL-10-HYDROXYCAMPTOTHECIN]
IC50 (HepG2): 0.48 µM | IC50 (MCF7): 1.25 µM

solubility [1, 4]: 183 mg/mL (≈ 142 mM)
SMILES: CC[C@@]1(OC(=O)OCCOCCOCCOCCOCCOCCOCCOCCOCCOCCOCCOCCOCCOCCOCCOCCOCCOCCOCCOCCOC)C(=O)OCc2c1cc1n(c2=O)Cc2cc3ccccc3nc2-1
IC50 (HepG2): 6.87 µM | IC50 (MCF7): 8.09 µM

solubility [1, 4]: 0.52 mg/mL (≈ 0.614 mM)
SMILES: CC[C@@]1(OC(=O)OCCOCCOCCOCCOCCOCCOCCOCCOCCOCCOC)C(=O)OCc2c1cc1n(c2=O)Cc2cc3ccccc3nc2-1
IC50 (HepG2): 4.48 µM | IC50 (MCF7): 10.3 µM

SMILES: CC[C@@]1(O)C(=O)OCc2c1cc1n(c2=O)Cc2cc3cc(OCCOCCOCCOCCOCCOCCOCCOCCOCCOCCOCCO)ccc3nc2-1
IC50 (HepG2): > 100 µM | IC50 (MCF7): > 100 µM

SMILES: CC[C@@]1(O)C(=O)OCc2c1cc1n(c2=O)Cc2cc3cc(OCCOCCOCCOCCOCCOCCO)ccc3nc2-1
solubility [1, 4]: 11 mg/mL (≈ 17.4 mM) | IC50 (HepG2): 50 µM | IC50 (MCF7): > 100 µM

SMILES: CC[C@@]1(O)C(=O)OCc2c1cc1n(c2=O)Cc2cc3cc(OC(=O)OCCOCCOCCOCCOCCOCCOCCOCCOCCOCCOCCOCCOCCOCCOCCOCCOCCOCCOCCOC)ccc3nc2-1
IC50 (HepG2): 2.2 µM | IC50 (MCF7): 6.09 µM

SMILES: CC[C@@]1(O)C(=O)OCc2c1cc1n(c2=O)Cc2cc3cc(OC(=O)OCCOCCOCCOCCOCCOCCOCCOCCOCCOCCOCCOCCOCCOCCOC)ccc3nc2-1
IC50 (HepG2): 1.79 µM | IC50 (MCF7): 5.61 µM

SMILES: CC[C@@]1(O)C(=O)OCc2c1cc1n(c2=O)Cc2cc3cc(OCCOCCOCCOCCOCCOCCOCCOCCOCCO)ccc3nc2-1
IC50 (HepG2): > 100 µM | IC50 (MCF7): > 100 µM

solubility [1, 4]: 0.38 mg/mL (≈ 0.501 mM)
SMILES: CC[C@@]1(OC(=O)OCCOCCOCCOCCOCCOCCOCCOCCOC)C(=O)OCc2c1cc1n(c2=O)Cc2cc3ccccc3nc2-1
IC50 (HepG2): 5.47 µM | IC50 (MCF7): 7.42 µM

solubility [1, 4]: 82.8 mg/mL (≈ 88.6 mM)
SMILES: CC[C@@]1(OC(=O)OCCOCCOCCOCCOCCOCCOCCOCCOCCOCCOCCOCCOC)C(=O)OCc2c1cc1n(c2=O)Cc2cc3ccccc3nc2-1
IC50 (HepG2): 5.97 µM | IC50 (MCF7): 3.36 µM

SMILES: CC[C@@]1(O)C(=O)OCc2c1cc1n(c2=O)Cc2cc3cc(OC(=O)OCCOCCOCCOCCOCCOCCOCCOCCOCCOCCOCCOCCOCCOCCOCCOCCOCCOCCOCCOCCOC)ccc3nc2-1
IC50 (HepG2): 3.62 µM | IC50 (MCF7): 6.88 µM

solubility [1, 4]: 114 mg/mL (≈ 106 mM)
SMILES: CC[C@@]1(OC(=O)OCCOCCOCCOCCOCCOCCOCCOCCOCCOCCOCCOCCOCCOCCOCCOC)C(=O)OCc2c1cc1n(c2=O)Cc2cc3ccccc3nc2-1
IC50 (HepG2): 7.07 µM | IC50 (MCF7): 8.53 µM

SMILES: CC[C@@]1(O)C(=O)OCc2c1cc1n(c2=O)Cc2cc3cc(OCCOCCOCCOCCOCCOCCOCCOCCOCCOCCOCCOCCO)ccc3nc2-1
IC50 (HepG2): > 100 µM | IC50 (MCF7): > 100 µM

SMILES: CC[C@@]1(O)C(=O)OCc2c1cc1n(c2=O)Cc2cc3cc(OCCOCCOCCOCCOCCOCCOCCOCCOCCOCCO)ccc3nc2-1
IC50 (HepG2): > 100 µM | IC50 (MCF7): > 100 µM

SMILES: CC[C@@]1(O)C(=O)OCc2c1cc1n(c2=O)Cc2cc3cc(OC(=O)OCCOCCOCCOCCOCCOCCOCCOCCOCCOCCOCCOCCOCCOCCOCCOCCOCCOCCOCCOCCOCCOCCOCCOCCOC)ccc3nc2-1
IC50 (HepG2): 2.69 µM | IC50 (MCF7): 6.76 µM

SMILES: CC[C@@]1(O)C(=O)OCc2c1cc1n(c2=O)Cc2cc3cc(OC(=O)OCCOCCOCCOCCOCCOCCOCCOCCOC)ccc3nc2-1
solubility [1, 4]: 85.1 mg/mL (≈ 110 mM) | IC50 (HepG2): 3.06 µM | IC50 (MCF7): 5.39 µM

SMILES: CC[C@@]1(O)C(=O)OCc2c1cc1n(c2=O)Cc2cc3cc(O)ccc3nc2-1 [HYDROXYCAMPTOTHECIN]
solubility ([1]; buffer): 0.00094 mg/mL (≈ 0.00258 mM) | IC50 (HepG2): 1.47 µM | IC50 (MCF7): 3.58 µM

SMILES: CC[C@@]1(O)C(=O)OCc2c1cc1n(c2=O)Cc2cc3cc(OC(=O)OCCOCCOCCOCCOCCOCCOCCOCCOCCOCCOCCOC)ccc3nc2-1
IC50 (HepG2): 2.51 µM | IC50 (MCF7): 4.64 µM

SMILES: CC[C@@]1(O)C(=O)OCc2c1cc1n(c2=O)Cc2cc3cc(OCCOCCOCCOCCOCCOCCOCCOCCO)ccc3nc2-1
solubility [1, 4]: 249 mg/mL (≈ 347 mM) | IC50 (HepG2): > 100 µM | IC50 (MCF7): > 100 µM

SMILES: CCc1c2c(nc3ccc(OC(=O)OCCOCCOCCOCCOCCOCCOCCOCCOCCOCCOCCOCCOCCOCCOCCOC)cc13)-c1cc3c(c(=O)n1C2)COC(=O)[C@]3(O)CC
IC50 (HepG2): 2.31 µM | IC50 (MCF7): 4.72 µM | Drug metabolism [2]: Metabolite_Detected | Drug metabolism [3]: Metabolite_Detected

solubility [1, 4]: 79.5 mg/mL (≈ 89.2 mM)
SMILES: CC[C@@]1(OC(=O)OCCOCCOCCOCCOCCOCCOCCOCCOCCOCCOCCOC)C(=O)OCc2c1cc1n(c2=O)Cc2cc3ccccc3nc2-1
IC50 (HepG2): 4.78 µM | IC50 (MCF7): 8.48 µM

SMILES: CC[C@@]1(O)C(=O)OCc2c1cc1n(c2=O)Cc2cc3cc(OC(=O)OCCOCCOCCOCCOCCOCCOCCOCCOCCOCCOCCOCCOC)ccc3nc2-1
IC50 (HepG2): 2.21 µM | IC50 (MCF7): 2.85 µM | Drug metabolism [2]: Metabolite_Detected | Drug metabolism [3]: Metabolite_Detected

SMILES: CC[C@@]1(O)C(=O)OCc2c1cc1n(c2=O)Cc2cc3cc(OCCOCCOCCOCCOCCO)ccc3nc2-1
solubility [1, 4]: 6.34 mg/mL (≈ 10.8 mM) | IC50 (HepG2): 70.3 µM | IC50 (MCF7): 95.8 µM

SMILES: CC[C@@]1(O)C(=O)OCc2c1cc1n(c2=O)Cc2cc3cc(OC(=O)OCCOCCOCCOCCOCCOCCOCCOCCOCCOCCOCCOCCOCCOCCOCCOC)ccc3nc2-1
IC50 (HepG2): 1.71 µM | IC50 (MCF7): 4.47 µM

solubility [1, 4]: 94.1 mg/mL (≈ 91.9 mM)
SMILES: CC[C@@]1(OC(=O)OCCOCCOCCOCCOCCOCCOCCOCCOCCOCCOCCOCCOCCOCCOC)C(=O)OCc2c1cc1n(c2=O)Cc2cc3ccccc3nc2-1
IC50 (HepG2): 5.15 µM | IC50 (MCF7): 7.43 µM
